Experiments:
[1] = target: T1, C-CBL (residues 46-435) (Homo sapiens, UniProt P22681); experiment: Ligand Displacement Assay (LDA), HTRF competitive binding against BODIPY-labeled fluorescent tracer, C-CBL; settings: geometric mean of the number of tests, read-out: C-CBL Ki (nM) GMean
T1 construct: Purified CBL-B (residues 36-427) and C-CBL (residues 46-435) proteins from baculovirus-infected insect cells; made in house; host or cells: baculovirus-infected insect cells
T1 sequence (P22681 46-435): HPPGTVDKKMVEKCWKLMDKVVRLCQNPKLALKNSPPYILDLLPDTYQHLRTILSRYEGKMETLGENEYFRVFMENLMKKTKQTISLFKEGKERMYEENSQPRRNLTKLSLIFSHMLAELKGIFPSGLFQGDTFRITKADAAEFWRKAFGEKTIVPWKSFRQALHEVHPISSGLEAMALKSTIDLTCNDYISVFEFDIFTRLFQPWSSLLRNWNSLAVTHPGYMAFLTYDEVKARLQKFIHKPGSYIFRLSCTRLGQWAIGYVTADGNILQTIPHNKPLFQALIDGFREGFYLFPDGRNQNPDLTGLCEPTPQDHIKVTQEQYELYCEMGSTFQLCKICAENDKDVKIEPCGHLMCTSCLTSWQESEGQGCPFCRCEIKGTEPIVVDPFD
Outline: (§1)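 First, the insect-cell-expressed protein is biotinylated at its amino-terminal AviTag with BirA and coupled to SA-Tb. Next, the tracer KD is determined for each protein. Finally, compounds are titrated three-fold in duplicate […], at 2% DMSO, and Ki is reported as a geometric mean.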

[2] = target: T2, CBL-B (residues 36-427) (Homo sapiens, UniProt Q13191); experiment: Ligand Displacement Assay (LDA), HTRF competitive binding against BODIPY-labeled fluorescent tracer, CBL-B; settings: geometric mean of the number of tests, read-out: CBL-B Ki (nM) GMean
T2 construct: Purified CBL-B (residues 36-427) and C-CBL (residues 46-435) proteins from baculovirus-infected insect cells; made in house; host or cells: baculovirus-infected insect cells
Outline: as §1

[3] = target: T3, WT CBL-B (36-427) (Homo sapiens, UniProt Q13191); experiment: Surface Plasmon Resonance (SPR) assay, binding affinity and kinetics, CBL-B; settings: SPR at 10° C., biotinylated WT CBL-B (36-427) on streptavidin chip; geometric mean; read-out: CBL-B SPR Kd (nM) GMean
T3 construct: N-terminal biotinylated WT CBL-B (36-427) and C-CBL (46-435) were captured on a streptavidin (SA) coated sensor chip
Outline: (§2)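 Biotinylated WT CBL-B (36-427) or C-CBL (46-435) captured on streptavidin chip (~5000–6000 RU); binding at 10° C in HEPES buffer pH 7.2 with 2% DMSO. Multi-cycle: 2-fold, 10-point series from 10 or 100 μM, 90 s association. Single-cycle: 3-fold, 6-point, 0.001–1 μM, 120 s association, >5400 s dissociation.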

[4] = target: T4, C-CBL (46-435) (Homo sapiens, UniProt P22681); experiment: Surface Plasmon Resonance (SPR) assay, binding affinity and kinetics, C-CBL; settings: SPR at 10° C., biotinylated C-CBL (46-435) on streptavidin chip; geometric mean; read-out: C-CBL SPR Kd (nM) GMean
T4 construct: N-terminal biotinylated WT CBL-B (36-427) and C-CBL (46-435) were captured on a streptavidin (SA) coated sensor chip
T4 sequence (P22681 46-435): T1 sequence (P22681 46-435)
Outline: as §2

Row | SMILES | Ki [1] | Ki [2] | Kd [3] | Kd [4]
1 | Cn1cnnc1CC1(c2cccc(-c3n[nH]c4c(CN5CCCC5)nc(C(F)(F)F)cc34)c2)COC1 [Example C62, 3-(3-{3-[(4-methyl-4H-1,2,4-triazol-3-yl)methyl]oxetan-3-yl}phenyl)-7-[(pyrrolidin-1-yl)methyl]-5-(trifluoromethyl)-1H-pyrazolo[3,4-c]pyridine] | 162 nM | 34.3 nM | 8.6 nM | 111 nM
2 | C[C@@H](c1nc(C(F)(F)F)cc2c(-c3cccc(C4(Cc5nncn5C)COC4)c3)n[nH]c12)N1CCNCC1 (single isomer, unassigned) [Example D53] | 36.9 nM | 11.8 nM | 3.2 nM | 36.1 nM
3 | Cn1cnnc1[C@@H](c1cccc(-c2n[nH]c3c(CN4CCNCC4)nc(C(F)(F)F)cc23)c1)C1CCC1 [Example D84] | 144 nM | 21.9 nM | 5.6 nM | 148 nM
4 | Cn1cnnc1CC1(c2cccc(-c3n[nH]c4cnc(OC(F)F)cc34)c2)COC1 [Example B10, 5-(difluoromethoxy)-3-(3-{3-[(4-methyl-4H-1,2,4-triazol-3-yl)methyl]oxetan-3-yl}phenyl)-1H-pyrazolo[3,4-c]pyridine] | 187 nM | 57.8 nM | 22.2 nM | 141 nM
5 | Cn1cnnc1[C@@H](c1cccc(-c2n[nH]c3c(CN[C@@H]4CCC[C@H]4O)nc(C(F)(F)F)cc23)c1)C1CCC1 [Example C121, (1R,2R)-2-({[3-{3-[(R)-cyclobutyl(4-methyl-4H-1,2,4-triazol-3-yl)methyl]phenyl}-5-(trifluoromethyl)-1H-pyrazolo[3,4-c]pyridin-7-yl]methyl}amino)cyclopentan-1-ol] | 111 nM | 18.9 nM | 3.3 nM | 113 nM
6 | Cn1cnnc1[C@@H](c1cccc(-c2n[nH]c3c(CN4C[C@@H](O)[C@H](O)C4)nc(C(F)(F)F)cc23)c1)C1CCC1 [Example C74, (3R,4R)-1-{[3-{3-[(R)-cyclobutyl(4-methyl-4H-1,2,4-triazol-3-yl)methyl]phenyl}-5-(trifluoromethyl)-1H-pyrazolo[3,4-c]pyridin-7-yl]methyl}pyrrolidine-3,4-diol] | 83.1 nM | 7.5 nM | 3.2 nM | 103 nM
7 | Cn1cnnc1[C@@H](c1cccc(-c2n[nH]c3c(CNC4CCC4)nc(C(F)(F)F)cc23)c1)C1CCC1 [Example C105, N-{[3-{3-[(R)-cyclobutyl(4-methyl-4H-1,2,4-triazol-3-yl)methyl]phenyl}-5-(trifluoromethyl)-1H-pyrazolo[3,4-c]pyridin-7-yl]methyl}cyclobutanamine] | 244 nM | 29.4 nM | 4.2 nM | 132 nM
8 | Cn1cnnc1[C@@H](c1cccc(-c2n[nH]c3c(CN[C@H]4CC[C@H](O)C4)nc(C(F)(F)F)cc23)c1)C1CCC1 [Example D86] | 106 nM | 16.1 nM | 6.4 nM | 161 nM
9 | CC(N[C@@H]1CCOC1)c1nc(C(F)(F)F)cc2c(-c3cccc(C4(Cc5nncn5C)COC4)c3)n[nH]c12 (single isomer, unassigned) [Example C86] | 49.4 nM | 9 nM | 5.1 nM | 60.3 nM
10 | CC(O)c1nc(C(F)(F)F)cc2c(-c3cccc(C4(Cc5nncn5C)COC4)c3)n[nH]c12 (single isomer, unassigned) [Example K10, (1ξ)-1-[3-(3-{3-[(4-methyl-4H-1,2,4-triazol-3-yl)methyl]oxetan-3-yl}phenyl)-5-(trifluoromethyl)-1H-pyrazolo[3,4-c]pyridin-7-yl]ethan-1-ol] | 219 nM | 45.1 nM | 23.5 nM | 291 nM
11 | CN1CC[C@@H](N(C)c2nc(C(F)(F)F)cc3c(-c4cccc([C@H](c5nncn5C)C5CCC5)c4)n[nH]c23)C1 [Example J11, 3-{3-[(R)-cyclobutyl(4-methyl-4H-1,2,4-triazol-3-yl)methyl]phenyl}-N-methyl-N-[(3R)-1-methylpyrrolidin-3-yl]-5-(trifluoromethyl)-1H-pyrazolo[3,4-c]pyridin-7-amine] | 275 nM | 41.6 nM | 24 nM | 393 nM
12 | C[C@H](c1nc(C(F)(F)F)cc2c(-c3cccc(C4(Cc5nncn5C)COC4)c3)n[nH]c12)N1CCC1 (single isomer, unassigned) [Example D42] | 163 nM | 35.3 nM | 9.4 nM | 59.8 nM
13 | C[C@@H]1CN([C@H](C)c2nc(C(F)(F)F)cc3c(-c4cccc(C5(Cc6nncn6C)COC5)c4)n[nH]c23)CCO1 (single isomer, unassigned) [Example D50] | 30.7 nM | 9 nM | 2.6 nM | 30.1 nM
14 | CC(CN)c1nc(C(F)(F)F)cc2c(-c3cccc([C@H](c4nncn4C)C4CCC4)c3)n[nH]c12 (single isomer, unassigned) [Example K14] | 195 nM | 24.8 nM | 20.6 nM | 244 nM
15 | C[C@@H](c1nc(C(F)(F)F)cc2c(-c3cccc([C@H](c4nncn4C)C4CCC4)c3)n[nH]c12)N1CCNC(=O)C1 (single isomer, unassigned) [Example D88] | 35.2 nM | 3.9 nM | 5.7 nM | 34.1 nM
16 | CCNC(C)c1nc(C(F)(F)F)cc2c(-c3cccc(C4(Cc5nncn5C)COC4)c3)n[nH]c12 (single isomer, unassigned) [Example C84, (1ξ)-N-ethyl-1-[3-(3-{3-[(4-methyl-4H-1,2,4-triazol-3-yl)methyl]oxetan-3-yl}phenyl)-5-(trifluoromethyl)-1H-pyrazolo[3,4-c]pyridin-7-yl]ethan-1-amine] | 144 nM | 25.1 nM | 5.8 nM | 99 nM
17 | CC(NC1CC(F)(F)C1)c1nc(C(F)(F)F)cc2c(-c3cccc(C4(Cc5nncn5C)COC4)c3)n[nH]c12 (single isomer, unassigned) [Example C93, 3,3-difluoro-N-{(1ξ)-1-[3-(3-{3-[(4-methyl-4H-1,2,4-triazol-3-yl)methyl]oxetan-3-yl}phenyl)-5-(trifluoromethyl)-1H-pyrazolo[3,4-c]pyridin-7-yl]ethyl}cyclobutan-1-amine] | 15.9 nM | 3.6 nM | 2.3 nM | 21.7 nM
18 | Cn1cnnc1[C@@H](c1cccc(-c2n[nH]c3c(CN4CCC(F)(F)C4)nc(C(F)(F)F)cc23)c1)C1CCC1 [Example C114, 3-{3-[(R)-cyclobutyl(4-methyl-4H-1,2,4-triazol-3-yl)methyl]phenyl}-7-[(3,3-difluoropyrrolidin-1-yl)methyl]-5-(trifluoromethyl)-1H-pyrazolo[3,4-c]pyridine] | 1070 nM | 87.9 nM | 10.8 nM | 278 nM
19 | Cn1cnnc1[C@@H](c1cccc(-c2n[nH]c3c(CN4CC[C@@H](F)C4)nc(C(F)(F)F)cc23)c1)C1CCC1 [Example C109, 3-{3-[(R)-cyclobutyl(4-methyl-4H-1,2,4-triazol-3-yl)methyl]phenyl}-7-{[(3R)-3-fluoropyrrolidin-1-yl]methyl}-5-(trifluoromethyl)-1H-pyrazolo[3,4-c]pyridine] | 442 nM | 48.8 nM | 8.8 nM | 174 nM
20 | C[C@H](c1nc(C(F)(F)F)cc2c(-c3cccc([C@H](c4nncn4C)C4CCC4)c3)n[nH]c12)N1CCNC(=O)C1 (single isomer, unassigned) [Example D89] | 290 nM | 20.9 nM | 11 nM | 307 nM
21 | Cn1cnnc1[C@@H](c1cccc(-c2n[nH]c3c(C4CCCCN4)nc(C(F)(F)F)cc23)c1)C1CCC1 (single isomer, unassigned) [Example L1] | 439 nM | 74.2 nM | 40.7 nM | 697 nM
22 | Cn1cnnc1CC1(c2cccc(-c3n[nH]c4cnc(Cl)cc34)c2)COC1 [Example B8, 5-chloro-3-(3-{3-[(4-methyl-4H-1,2,4-triazol-3-yl)methyl]oxetan-3-yl}phenyl)-1H-pyrazolo[3,4-c]pyridine] | 142 nM | 28.6 nM | 15.9 nM | 180 nM

Reference: patent US20260125375A1 (Pfizer Inc., priority 2022, published 2026)
